From patent US8093260B2, “Aporphine derivatives and pharmaceutical use thereof” (Standard Chem. & Pharm. Co., Ltd., priority 2008, dated 2012)

How the values were obtained:
lipid peroxidase = experiment: Activity in inhibiting lipid peroxidase (malondialdehyde quantitation); format: biochemical, Dunkin Hartley Guinea pig; conditions: 10 μM; guinea pig liver microsomes; 20 minutes/37° C.
Protocol: The assay was executed with reference to the method described in Biochem Biophys Res Commun. 1986; 135(3): 1015-1021.
• (a) Source: Dunkin Hartley Guinea pig liver microsomes • (b) Substrate: Polyunsaturated fatty acid • (c) Vehicle: 1% DMSO • (d) Pre-Incubation Time/Temp: 15 minutes/37° C. • (e) Incubation Time/Temp: 20 minutes/37° C. • (f) Incubation Buffer: 0.25 M Potassium Phosphate, pH 7.4, 0.1 mM EDTA • (g) Quantitation Method: Spectrophotometric quantitation of Malondialdehyde

[1] = Free radical scavenging of AAPH (β-phycoerythrin fluorescence decay); format: biochemical; conditions: compound 5×10^−6 M, AAPH 25 mM, β-phycoerythrin 5 nM, FIG. 2
Description: In order to evaluate the effect of test compounds in scavenging hydrophilic peroxy radical, the experiment was executed with reference to the method described by Tsuchiya et al. (Methods Enzymol 1992; 213: 460-472). In the experiment, peroxides will react with fluorescent substances and thus inflect observed fluorescence intensity. Thereby, the effect of test compounds in free radical scavenging can be evaluated by measuring the variation of the fluorescence intensity after the addition of test compounds.
First, to a silicate tube was added a phosphate solution (2 ml, pH 7.4), followed by the addition of β-phycoerythrin (5 nM) to increase relative fluorescence intensity. After 5 minutes, 2,2′-azobis(2-amidinopropane)dihydrochloride (25 mM, AAPH) was added therein. Subsequently, through a fluorescent spectrometry (Shimadzu RF-5301PC, Japan), the fluorescence intensity of β-phycoerythrin was measured by excitation at 540 nm and emission at 570 nm. Then, the test compounds (5×10^−6 M) was further added therein to observe the variation of the fluorescence intensity, in which 0.1% DMSO was taken as a control group.

[2] = test system: vascular smooth muscle cells of rats; experiment: Protecting activity in vascular smooth muscle cells against H2O2 (MTT); format: cell-based, rat; conditions: compound 10 μM, 30 minutes before H2O2 200 μM, 24 hours, FIG. 3
Protocol: The vascular smooth muscle cells of rats (2×10^4 cells/mL×1 mL) were quantitatively seeded in 24-well plates, and cultured in Dulbecco's modified Eagle medium (DMEM) with 10% fetal bovine serum (FBS) for 24 hours to achieve cell adhesion. After cell adhesion, the DMEM medium with 10% fetal bovine serum was replaced with a fresh DMEM medium with 0.1% fetal bovine serum to perform cell culture for 48 hours.
Next, the test compounds were added in the cultures (final concentration: 0.1, 1, 10 μM). After 30 minutes, H2O2 (200 μM) was added therein to perform reaction for 24 hours in an incubator. Subsequently, in a light-proof environment, MTT (100 μL) was added into each well to perform reaction at 37° C. for 3 hours. The supernatant liquor was removed and then isopropanol (500 μL) was added, followed by shaking for 10 minutes. After standing for 10 minutes, supernatant liquor (200 μL) was transferred into 96-well plates. Finally, the absorbance values (O.D.) were monitored at 540 nm (OD540) and 630 nm (OD630). Based on the measured absorbance values (OD540-OD630), the effect of these test compounds on cell growth can be evaluated, as shown in FIG. 3.

Inhibition (%) (lipid peroxidase) | Compound | protection of β-phycoerythin from peroxy radical AAPH-induced damage (fluorescence decay) [1] | inhibition of H2O2 damage to vascular smooth muscle cells (cell viability, MTT) [2]
64 | COc1cc2c(cc1OC)-c1c(O)c(OC)cc3c1C(C2)N(CC(O)COc1ccccc1OC)CC3 (stereo not drawn) [Compound 1] | delay β-phycoerythin fluorescence degradation | significantly inhibit H2O2 to damage vascular smooth muscle cells
70 | COc1cc2c(cc1OC)-c1c(O)c(OC)cc3c1C(C2)N(CC(=O)Nc1c(C)cccc1C)CC3 (stereo not drawn) [Compound 2] | delay β-phycoerythin fluorescence degradation | slightly inhibit H2O2 to damage vascular smooth muscle cells
